# Source: patent US20200197516A1, “Antagonists of Products of the HS.459642 Unigene Cluster for the Inhibition of Proliferation, Development or Differentiation of Stem Cells Including Cancer Stem Cells” (Cavion, Inc., priority 2011, published 2020)
# Test system: glioma stem cells (GSC)
# Test: alamarBlue assay: sensitizing glioma stem cells to Temozolomide
# Format: cell-based
# Details: mibefradil 30 nM for 24 hrs, washed, then Temozolomide 5 μM for 24 hrs, FIG. 4
# Procedure: FIG. 4. Effect of mibefradil (Mi) on sensitizing glioma stem cells (GSC) to Temozolomide (TMZ). The GSCs were seeded in 24 well plates as 50,000 cells/well overnight. They were grown in serum-free neurobasal media (Invitrogen), supplemented with human recombinant EGF and bFGF (R&D Systems) at 37° C. in 5% CO2, […]. Cells were treated with the T type calcium channel blocker mibefradil (30 nM) for 24 hrs, washed and then treated with Temozolomide (5 μM) for 24 hrs The reagent alamarBlue® (Invitrogen) was added to each well to arrive at a final concentration of 10% alamarBlue® in each well and fluorescence intensity was determined according to the manufacturers instructions. Plates were incubated for 1-2 hrs and 100 μl of supernatant was transferred to a 96 well plate for alamarBlue® reading.
# FIG. 5. […]
# In order to determine the effect of inhibition of a product of the Hs.459642 Unigene Cluster on cancer stem cells, the effect of two inhibitors of T-type calcium channels was studied to determine if CACNA1H inhibition sensitizes cancer cells to further anti-cancer treatment. […] Subsequent to the combination treatment, with the anti-cancer agent administered sequentially to the CACNA1H inhibitor, fluorescence intensity indicative of cell proliferation was analyzed, with greater intensity indicating increased cellular proliferation. […]
smiles,measurement,value
"COCC(=O)O[C@]1(CCN(C)CCCc2nc3ccccc3[nH]2)CCc2cc(F)ccc2[C@@H]1C(C)C [Mi, mibefradil]","fluorescence intensity (alamarBlue, indicative of cell proliferation)",dramatically reduced
